Data set [1] deals with rat renal glomerular endothelial cells. Briefly: NO and ONOO^− release ex vivo from glomerular endothelial cells exposed to oxLDL and high glucose (Example 13). It counts as cell-based. The note with it: 10.0 μM, 1 hr; oxLDL 11 mg/dL and glucose 300 mg/dL; vs vehicle. The procedure:
Healthy male Wistar Kyoto (WKY) rats, aged 7-9 weeks and weighing 250±20 g, were obtained from inbred colonies (National Institutes of Health, Bethesda, Md.). Animals were housed in a controlled environment that provided food and water ad libitum prior to the study. […] Animals were sacrificed and tissue samples obtained immediately for experimentation. All procedures were conducted in accordance with standard Institutional Animal Care and Use Committee guidelines and conformed to the Guide for the Care and Use of Laboratory Animals published by the US National Institutes of Health.
Immediately after sacrificing the rats, kidneys were removed, cut into 100 μm sections and transferred to a separate organ chamber containing Dulbecco's phosphate buffered saline ([…]) and […] at pH 7.4. […]
The NO/ONOO− nanosensor was positioned near the surface of the endothelial cells using a computer-controlled M3301 micromanipulator (x-y-z resolution of 0.2 μm) and microscope (both from World Precision Instruments, Berlin, Germany) fitted with a CD camera. Each analyte was measured from amperograms and standard calibration curves collected under maximum current. […] Changes in current (proportional to the molar concentrations of NO or ONOO^− released) were monitored continuously immediately following CaI stimulation.

Data set [2] in a line: Glucose-induced membrane lipid peroxidation (LOOH, CHOD-iodide assay) in DLPC/cholesterol vesicles (Examples 4, 5). Type of data set: biochemical. The following applies: 1.0 μM; glucose 200 mg/dL; 96 hours. The procedure:
All test compounds were further diluted in ethanol or aqueous buffer as needed. Glucose was prepared in saline buffer (0.5 mM HEPES, 154 mM NaCl, pH 7.3) at 11.0 mM (200 mg/dL). CHOD-iodide color reagent (stock) was prepared, with slight modification, as described by from El-Saadani et al. (J. […] Samples were shell-dried under nitrogen gas and placed under vacuum for 1 h to remove residual solvent. […] Lipid suspensions were then vortexed for 3 min at ambient temperature to form MLVs. All MLV samples were subjected to time-dependent autoxidation by incubating at 37° C. in an uncovered, shaking water bath. This method allows lipid peroxidation to occur gradually without requiring the use of exogenous initiators. Small aliquots (5-100 μL) of each sample were removed, immediately following MLV preparation (0 hour) and after exposing samples to oxidative conditions for 72 or 96 hour, and combined with 1.0 mL of activated CHOD-iodide color reagent. Aliquot volume was reduced with each successive time point to ensure that spectrophotometric readings were within the optimal adsorption range. Test samples were covered and incubated in darkness at room temperature for at least 4 hr. Sample absorbances were then measured against a CHOD blank at 365 nm using a Beckman DU-640 spectrophotometer. The CHOD colorimetric assay is based on the oxidation of iodide (I^−) by lipid hydroperoxide (LOOH) to form triiodide the quantity of which is directly proportional to the amount of LOOH present in the lipid sample. The molar absorptivity (ε) of I3^− is 2.46×10^4 M^−1 cm^−1 at 365 nm. […] All MLV samples were subjected to time-dependent autoxidation by incubating at 37° C. in an uncovered, shaking water bath. This method allows lipid peroxidation to occur gradually without requiring the use of exogenous initiators. Small aliquots (5-100 μL) of each sample were removed, immediately following MLV preparation (0 hr) and after exposing samples to oxidative conditions for 72 or 96 hr, and combined with 1.0 mL of activated CHOD-iodide color reagent. Aliquot volume was reduced with each successive time point to ensure that spectrophotometric readings were within the optimal adsorption range. Test samples were covered and incubated in darkness at room temperature for at least 4 hr. Sample absorbances were then measured against a CHOD blank at 365 nm using a Beckman DU-640 spectrophotometer. […] The molar absorptivity (ε) of I3^− is 2.46×10^4 M^−1 cm^−1 at 365 nm.

Another data set relates to human LDL. Briefly: Copper-induced oxidation of unfractionated LDL, TBARS (Example 7). It counts as biochemical. The following applies: 1 hour. The procedure: An experiment to study the antioxidant effect of EPA in LDL and small dense LDL (“sdLDL”) was performed. LDL and sdLDL were isolated from the plasma of healthy volunteers by iodixanol density gradient ultracentrifugation, and adjusted to a final apolipoprotein concentration of 2 mg/mL. […] Vitamin E was also incubated with sample aliquots as a positive control.

A further data set relates to human sdLDL. Briefly: Copper-induced sdLDL oxidation, TBARS (Example 7). It counts as biochemical.
The target of another data set is T1, HMG-CoA reductase (Homo sapiens, UniProt P04035).
T1 sequence (P04035 1-888): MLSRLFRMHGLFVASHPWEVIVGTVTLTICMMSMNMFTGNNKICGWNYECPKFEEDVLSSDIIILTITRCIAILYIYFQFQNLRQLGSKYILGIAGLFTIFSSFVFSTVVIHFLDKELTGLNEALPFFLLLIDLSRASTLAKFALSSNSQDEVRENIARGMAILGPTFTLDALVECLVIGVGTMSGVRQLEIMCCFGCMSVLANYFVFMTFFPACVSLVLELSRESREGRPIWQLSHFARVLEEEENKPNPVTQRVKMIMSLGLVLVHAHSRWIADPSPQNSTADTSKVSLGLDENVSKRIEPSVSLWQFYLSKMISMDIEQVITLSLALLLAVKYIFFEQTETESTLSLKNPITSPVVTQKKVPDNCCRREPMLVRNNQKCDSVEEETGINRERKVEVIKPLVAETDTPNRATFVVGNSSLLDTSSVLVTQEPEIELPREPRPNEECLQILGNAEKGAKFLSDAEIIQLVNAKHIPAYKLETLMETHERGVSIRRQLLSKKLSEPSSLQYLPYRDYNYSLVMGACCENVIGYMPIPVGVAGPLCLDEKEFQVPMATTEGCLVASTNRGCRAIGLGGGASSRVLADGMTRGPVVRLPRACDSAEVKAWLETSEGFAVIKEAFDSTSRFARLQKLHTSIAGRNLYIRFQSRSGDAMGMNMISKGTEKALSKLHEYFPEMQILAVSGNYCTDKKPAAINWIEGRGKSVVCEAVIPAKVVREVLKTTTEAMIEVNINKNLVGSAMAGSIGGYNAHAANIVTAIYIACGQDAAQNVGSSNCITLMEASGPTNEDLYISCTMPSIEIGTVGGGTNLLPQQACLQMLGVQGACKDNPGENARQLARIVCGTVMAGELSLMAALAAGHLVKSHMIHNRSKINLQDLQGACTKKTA
The note with it: metabolized by hepatic cytochrome P450; cited from earlier work.

The values below come from US20190209506A1, “METHODS OF REDUCING OR PREVENTING OXIDATION OF LDL OR LIPID MEMBRANES IN A SUBJECT IN NEED THEREOF” (Amarin Pharmaceuticals Ireland Limited, priority 2018, published 2019).

Procedure for human sdLDL: An experiment to study the antioxidant effect of EPA in LDL and small dense LDL (“sdLDL”) was performed. LDL and sdLDL were isolated from the plasma of healthy volunteers by iodixanol density gradient ultracentrifugation, and adjusted to a final apolipoprotein concentration of 2 mg/mL. […] Lipid oxidation was initiated with 10 μM CuSO4 and monitored by the colorimetric detection of thiobarbituric acid reactive substances (TBARS) for 1 hr. Vitamin E was also incubated with sample aliquots as a positive control.

For `CC(C)c1c(C(=O)Nc2ccccc2O)c(-c2ccccc2)c(-c2ccc(F)cc2)n1CC[C@@H](O)C[C@@H](O)CC(=O)O` [ATM, Atorvastatin ortho- (o-) hydroxy (active) metabolite], the “increase of NO release” value in data set [1] is given as 205%. Moreover, the “reduction of ONOO^− release” value in data set [1] was 25%. Besides, the “antioxidant effect (LOOH formation)” value in data set [2] is “separate and potent antioxidant effects”. In addition, in the data set with human LDL, the “effect on unfractionated LDL oxidation, dose dependence” value is “significant and dose-dependent inhibition of unfractionated LDL oxidation beginning at 1.0 μM”. Also, the “inhibition of sdLDL oxidation” value worked out at 5±5% in the data set with human sdLDL (0.5 μM, 1 hr); 18±5% in the data set with human sdLDL (1.0 μM, 1 hr, vs vehicle); 90±2% in the data set with human sdLDL (highest dose, 1 hr).
As to `CC(C)c1c(C(=O)Nc2ccccc2)c(-c2ccccc2)c(-c2ccc(F)cc2)n1CC[C@@H](O)C[C@@H](O)CC(=O)O` [atorvastatin], the “effect on unfractionated LDL oxidation” value with human LDL (10 μM) was “did not have any significant antioxidant activity”. Besides, the “share of circulating HMG-CoA reductase inhibitory activity accounted for by active metabolites” value on HMG-CoA reductase is “approximately 70%”. For the same compound, the “effect on sdLDL oxidation compared to vehicle-treated controls” value in the data set on human sdLDL (10 μM, 1 hour) is recorded as “did not have any significant antioxidant activity”. Moreover, the “inhibition of TBARS formation / sdLDL oxidation” value with human sdLDL (10 μM, 1 hr, vs vehicle) turned out to be 0.1±7%.
